What was measured:
Assay type in all cases: in vivo
[1] = system: blackgrass (Alopecurus myosuroides); test: Test A postemergence; conditions: Alopecurus myosuroides, post-emergence, 240 h, Postemergence, read-out: Blackgrass plant response rating (0 to 100 scale); for pest or weed control at 125 g/ha: 125 g ai/ha, visual rating about 10 d after treatment; for pest or weed control at 31 g/ha: 31 g ai/ha, 0 is no effect, 100 is complete control
Method in brief: (§1)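 Ratings of 0 (no effect) to 100 (complete control) come from visual comparison with untreated controls roughly 10 d after treatment. Test chemicals, formulated in a non-phytotoxic solvent mixture with surfactant, were applied either as a preemergence directed soil spray on seeded soil or postemergence to one- to two-leaf plants 2 to 10 cm tall.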

corn (Zea mays) = test: Test A postemergence; conditions: Zea mays, post-emergence, 240 h, Postemergence, read-out: Corn plant response rating (0 to 100 scale); for plant injury at 125 g/ha: 125 g ai/ha, visual rating about 10 d after treatment; for plant injury at 31 g/ha: 31 g ai/ha, 0 is no effect, 100 is complete control
Method in brief: as §1

[2] = system: ragweed (common ragweed, Ambrosia elatior); test: Test A postemergence; conditions: Ambrosia artemisiifolia, post-emergence, 240 h, Postemergence, read-out: Ragweed plant response rating (0 to 100 scale); for pest or weed control at 125 g/ha: 125 g ai/ha, visual rating about 10 d after treatment; for pest or weed control at 31 g/ha: 31 g ai/ha, 0 is no effect, 100 is complete control
Method in brief: as §1

[3] = system: barnyardgrass (Echinochloa crus-galli); test: Test A postemergence; conditions: Echinochloa crus-galli, post-emergence, 240 h, Postemergence; for pest or weed control at 125 g/ha: 125 g ai/ha, visual rating about 10 d after treatment, read-out: Barnyardgrass plant response rating (0 to 100 scale, 0 no effect, 100 complete control); for pest or weed control at 31 g/ha: 31 g ai/ha, 0 is no effect, 100 is complete control, read-out: Barnyardgrass plant response rating (0 to 100 scale)
Method in brief: as §1

Kochia (Kochia scoparia) [4] = test: Test A postemergence; conditions: Bassia scoparia, post-emergence, 240 h, Postemergence, read-out: Kochia plant response rating (0 to 100 scale); for pest or weed control at 125 g/ha: 125 g ai/ha, visual rating about 10 d after treatment; for pest or weed control at 31 g/ha: 31 g ai/ha, 0 is no effect, 100 is complete control
Method in brief: as §1

[5] = system: pigweed (Amaranthus retroflexus); test: Test A postemergence; conditions: Amaranthus retroflexus, post-emergence, 240 h, Postemergence, read-out: Pigweed plant response rating (0 to 100 scale); for pest or weed control at 125 g/ha: 125 g ai/ha, visual rating about 10 d after treatment; for pest or weed control at 31 g/ha: 31 g ai/ha, 0 is no effect, 100 is complete control
Method in brief: as §1

[6] = system: wheat (Triticum aestivum); test: Test A postemergence; conditions: Triticum aestivum, post-emergence, 240 h, Postemergence, read-out: Wheat plant response rating (0 to 100 scale); for plant injury at 125 g/ha: 125 g ai/ha, visual rating about 10 d after treatment; for plant injury at 31 g/ha: 31 g ai/ha, 0 is no effect, 100 is complete control
Method in brief: as §1

[7] = system: giant foxtail (Setaria faberii); test: Test A postemergence; conditions: Setaria faberi, post-emergence, 240 h, Postemergence, read-out: Foxtail, Giant plant response rating (0 to 100 scale); for pest or weed control at 125 g/ha: 125 g ai/ha, visual rating about 10 d after treatment; for pest or weed control at 31 g/ha: 31 g ai/ha, 0 is no effect, 100 is complete control
Method in brief: as §1

[8] = system: ryegrass, Italian (Italian ryegrass, Lolium multiflorum); test: Test A postemergence; conditions: Lolium multiflorum, post-emergence, 240 h, Postemergence, read-out: Ryegrass, Italian plant response rating (0 to 100 scale); for pest or weed control at 125 g/ha: 125 g ai/ha, visual rating about 10 d after treatment; for pest or weed control at 31 g/ha: 31 g ai/ha, 0 is no effect, 100 is complete control
Method in brief: as §1

[9] = system: barnyardgrass (Echinochloa crus-galli); test: Test B flooded paddy test; conditions: Echinochloa crus-galli, 360 h, Flood, 250 g ai/ha; visually evaluated after 13 to 15 d; read-out: Plant response rating, Barnyardgrass (0 to 100 scale where 0 is no effect and 100 is complete control)
Method in brief: (§2)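 Rating scale 0–100 (visual, vs untreated controls) after a 13–15 d greenhouse period; application to the flood layer, 3 cm above soil and maintained; plants at 2-leaf stage when treated.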

[10] = system: ducksalad (Heteranthera limosa); test: Test B flooded paddy test; conditions: Heteranthera limosa, 360 h, Flood, 250 g ai/ha; visually evaluated after 13 to 15 d; read-out: Plant response rating, Ducksalad (0 to 100 scale where 0 is no effect and 100 is complete control)
Method in brief: as §2

[11] = system: sedge, umbrella (small-flower umbrella sedge, Cyperus difformis); test: Test B flooded paddy test; conditions: Cyperus difformis, 360 h, Flood, 250 g ai/ha; visually evaluated after 13 to 15 d; read-out: Plant response rating, Sedge, Umbrella (0 to 100 scale where 0 is no effect and 100 is complete control)
Method in brief: as §2

rice (Oryra sativa) = test: Test B flooded paddy test; conditions: Oryza sativa, 360 h, Flood, 250 g ai/ha; visually evaluated after 13 to 15 d; read-out: Plant response rating, Rice (0 to 100 scale where 0 is no effect and 100 is complete control)
Method in brief: as §2

[12] = system: ragweed (common ragweed, Ambrosia elatior); test: Test A preemergence; conditions: Ambrosia artemisiifolia, pre-emergence, 240 h, Preemergence; for pest or weed control at 31 g/ha: 31 g ai/ha, 0 to 100 scale where 0 is no effect and 100 is complete control, read-out: Ragweed plant response rating; for pest or weed control at 125 g/ha: 125 g ai/ha, 0 to 100 scale (0 no effect, 100 complete control), read-out: Plant response rating, Ragweed
Method in brief: as §1

[13] = system: barnyardgrass (Echinochloa crus-galli); test: Test A preemergence; conditions: Echinochloa crus-galli, pre-emergence, 240 h, Preemergence; for pest or weed control at 31 g/ha: 31 g ai/ha, 0 to 100 scale where 0 is no effect and 100 is complete control, read-out: Barnyardgrass plant response rating; for pest or weed control at 125 g/ha: 125 g ai/ha, 0 to 100 scale (0 no effect, 100 complete control), read-out: Plant response rating, Barnyardgrass
Method in brief: as §1

Kochia (Kochia scoparia) [14] = test: Test A preemergence; conditions: Bassia scoparia, pre-emergence, 240 h, Preemergence; for pest or weed control at 31 g/ha: 31 g ai/ha, 0 to 100 scale where 0 is no effect and 100 is complete control, read-out: Kochia plant response rating; for pest or weed control at 125 g/ha: 125 g ai/ha, 0 to 100 scale (0 no effect, 100 complete control), read-out: Plant response rating, Kochia
Method in brief: as §1

[15] = system: pigweed (Amaranthus retroflexus); test: Test A preemergence; conditions: Amaranthus retroflexus, pre-emergence, 240 h, Preemergence; for pest or weed control at 31 g/ha: 31 g ai/ha, 0 to 100 scale where 0 is no effect and 100 is complete control, read-out: Pigweed plant response rating; for pest or weed control at 125 g/ha: 125 g ai/ha, 0 to 100 scale (0 no effect, 100 complete control), read-out: Plant response rating, Pigweed
[16] = system: giant foxtail (Setaria faberii); test: Test A preemergence; conditions: Setaria faberi, pre-emergence, 240 h, Preemergence
Method in brief: as §1

[17] = system: ryegrass, Italian (Italian ryegrass, Lolium multiflorum); test: Test A preemergence; conditions: Lolium multiflorum, pre-emergence, 240 h, Preemergence; for pest or weed control at 31 g/ha: 31 g ai/ha, 0 to 100 scale where 0 is no effect and 100 is complete control, read-out: Ryegrass, Italian plant response rating; for pest or weed control at 125 g/ha: 125 g ai/ha, 0 to 100 scale (0 no effect, 100 complete control), read-out: Plant response rating, Ryegrass, Italian
Method in brief: as §1

[18] = system: Galium (catchweed bedstraw, Galium aparine); test: Test A postemergence; conditions: Galium, post-emergence, 240 h, Postemergence, read-out: Galium plant response rating (0 to 100 scale); for pest or weed control at 125 g/ha: 125 g ai/ha, visual rating about 10 d after treatment; for pest or weed control at 31 g/ha: 31 g ai/ha, 0 is no effect, 100 is complete control
Method in brief: as §1

SMILES | pest or weed control at 125 g/ha [1] | pest or weed control at 31 g/ha [1] | plant injury at 125 g/ha (corn (Zea mays)) | plant injury at 31 g/ha (corn (Zea mays)) | pest or weed control at 125 g/ha [2] | pest or weed control at 31 g/ha [2] | pest or weed control at 125 g/ha [3] | pest or weed control at 31 g/ha [3] | pest or weed control at 125 g/ha (Kochia (Kochia scoparia) [4]) | pest or weed control at 31 g/ha (Kochia (Kochia scoparia) [4]) | pest or weed control at 125 g/ha [5] | pest or weed control at 31 g/ha [5] | plant injury at 125 g/ha [6] | plant injury at 31 g/ha [6] | pest or weed control at 125 g/ha [7] | pest or weed control at 31 g/ha [7] | pest or weed control at 125 g/ha [8] | pest or weed control at 31 g/ha [8] | pest or weed control at 31 g/ha [12] | pest or weed control at 125 g/ha [12] | also measured
COc1ccc([C@H]2CNC(=O)[C@@H]2C(=O)Nc2cccc(F)c2F)cc1 [Compound 1341] | 0% | 0% | 0% | 0% | 0% | 0% | 90% | 40% | 0% | 0% | 0% | 0% | 0% | 0% | 0% | 0% | 0% | 0% | 20% | 0% | pest or weed control at 250 g/ha [9]: 30%; pest or weed control at 250 g/ha [10]: 90%; pest or weed control at 250 g/ha [11]: 0%; pest or weed control at 250 g/ha (rice (Oryra sativa)): 0%; pest or weed control at 31 g/ha [13]: 0%; pest or weed control at 125 g/ha [13]: 60%; pest or weed control at 31 g/ha (Kochia (Kochia scoparia) [14]): 30%; pest or weed control at 125 g/ha (Kochia (Kochia scoparia) [14]): 0%; pest or weed control at 31 g/ha [15]: 0%; pest or weed control at 125 g/ha [15]: 0%; pest or weed control at 31 g/ha ([16]; 31 g ai/ha, 0 to 100 scale where 0 is no effect and 100 is complete control, read-out: Foxtail, Giant plant response rating): 10%; pest or weed control at 125 g/ha ([16]; 125 g ai/ha, 0 to 100 scale (0 no effect, 100 complete control), read-out: Plant response rating, Foxtail, Giant): 70%; pest or weed control at 31 g/ha [17]: 0%; pest or weed control at 125 g/ha [17]: 0%
CN1C[C@H](c2csc3c2CCC(F)(F)C3)[C@@H](C(=O)Nc2cccc(F)c2F)C1=O (racemic) [Compound 1369] | 20% | 0% | 0% | 0% | 20% | 0% | 60% | 20% | 20% | 0% | 20% | 20% | 0% | 0% | 50% | 20% | 30% | 0% | 50% | 70% | pest or weed control at 125 g/ha [18]: 30%; pest or weed control at 31 g/ha [18]: 0%; pest or weed control at 31 g/ha [13]: 0%; pest or weed control at 125 g/ha [13]: 100%; pest or weed control at 31 g/ha (Kochia (Kochia scoparia) [14]): 0%; pest or weed control at 125 g/ha (Kochia (Kochia scoparia) [14]): 0%; pest or weed control at 31 g/ha [15]: 0%; pest or weed control at 125 g/ha [15]: 0%; pest or weed control at 31 g/ha [17]: 0%; pest or weed control at 125 g/ha [17]: 0%
CN1C[C@H](c2csc3c2CCC(F)(F)C3)[C@@H](C(=O)Nc2ccc(F)c(F)c2F)C1=O (racemic) [Compound 1368] | 30% | 0% | 0% | 0% | 0% | 0% | 50% | 20% | 20% | 0% | 0% | 0% | 0% | 0% | 40% | 0% | 40% | 20% | 0% | 0% | pest or weed control at 125 g/ha [18]: 30%; pest or weed control at 31 g/ha [18]: 0%; pest or weed control at 31 g/ha [13]: 0%; pest or weed control at 125 g/ha [13]: 100%; pest or weed control at 31 g/ha (Kochia (Kochia scoparia) [14]): 0%; pest or weed control at 125 g/ha (Kochia (Kochia scoparia) [14]): 0%; pest or weed control at 31 g/ha [15]: 0%; pest or weed control at 125 g/ha [15]: 0%; pest or weed control at 31 g/ha [17]: 0%; pest or weed control at 125 g/ha [17]: 0%

Source: patent publication US12077503B2, “Substituted cyclic amides and their use as herbicides” (FMC CORPORATION, priority 2015, dated 2024)
